These results are taken from article PMC5615911 (Toxicology Reports, 2016).

A short description of series [1]: In vivo metabolism of S3643, single oral dose 100 mg/kg bw. Further details: species or system Sprague-Dawley rats.
A further series deals with CYP2C9 (Homo sapiens, UniProt P11712). The experiment in a line: CYP inhibition, LC–MS/MS assay in human liver microsomes. The settings on record: probe tolbutamide.
Series [2] deals with Primary human lymphocytes. The series can be described thus: In vitro chromosome aberration test.
The subject of series [3] is S. typhimurium strains TA98, TA100, TA1535, TA1537. The series can be described thus: Bacterial reverse mutation test. The class given is cell-based.
The nature of series [4]: 28-day dose-range finding toxicity study. In kind it is in vivo, Sprague-Dawley rats. The settings on record: 10, 30, 100 mg/kg bw/day (food ad-mix).
Another series deals with hERG (Homo sapiens, UniProt Q12809). The series can be described thus: hERG electrophysiology.
The mark [5] stands for this setting: both, Sprague-Dawley, rat, plasma, oral, 100 mg/kg bw.
Setting [6] is: rat plasma at 1 h, males and females combined.

CYP2C9, sequence (P11712 whole entry): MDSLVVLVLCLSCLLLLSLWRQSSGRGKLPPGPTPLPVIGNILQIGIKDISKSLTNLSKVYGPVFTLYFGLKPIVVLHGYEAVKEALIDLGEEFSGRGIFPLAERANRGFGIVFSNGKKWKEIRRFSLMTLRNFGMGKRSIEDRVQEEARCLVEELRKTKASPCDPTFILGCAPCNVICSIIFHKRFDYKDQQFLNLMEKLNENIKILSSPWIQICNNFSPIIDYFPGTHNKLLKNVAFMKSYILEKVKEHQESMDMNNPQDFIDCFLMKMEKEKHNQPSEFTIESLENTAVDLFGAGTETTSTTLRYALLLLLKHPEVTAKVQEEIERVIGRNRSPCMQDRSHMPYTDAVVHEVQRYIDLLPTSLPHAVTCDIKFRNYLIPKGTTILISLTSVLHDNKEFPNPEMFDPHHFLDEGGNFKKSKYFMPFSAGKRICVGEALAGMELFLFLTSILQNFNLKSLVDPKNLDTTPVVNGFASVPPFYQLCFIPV
hERG, sequence (Q12809 whole entry): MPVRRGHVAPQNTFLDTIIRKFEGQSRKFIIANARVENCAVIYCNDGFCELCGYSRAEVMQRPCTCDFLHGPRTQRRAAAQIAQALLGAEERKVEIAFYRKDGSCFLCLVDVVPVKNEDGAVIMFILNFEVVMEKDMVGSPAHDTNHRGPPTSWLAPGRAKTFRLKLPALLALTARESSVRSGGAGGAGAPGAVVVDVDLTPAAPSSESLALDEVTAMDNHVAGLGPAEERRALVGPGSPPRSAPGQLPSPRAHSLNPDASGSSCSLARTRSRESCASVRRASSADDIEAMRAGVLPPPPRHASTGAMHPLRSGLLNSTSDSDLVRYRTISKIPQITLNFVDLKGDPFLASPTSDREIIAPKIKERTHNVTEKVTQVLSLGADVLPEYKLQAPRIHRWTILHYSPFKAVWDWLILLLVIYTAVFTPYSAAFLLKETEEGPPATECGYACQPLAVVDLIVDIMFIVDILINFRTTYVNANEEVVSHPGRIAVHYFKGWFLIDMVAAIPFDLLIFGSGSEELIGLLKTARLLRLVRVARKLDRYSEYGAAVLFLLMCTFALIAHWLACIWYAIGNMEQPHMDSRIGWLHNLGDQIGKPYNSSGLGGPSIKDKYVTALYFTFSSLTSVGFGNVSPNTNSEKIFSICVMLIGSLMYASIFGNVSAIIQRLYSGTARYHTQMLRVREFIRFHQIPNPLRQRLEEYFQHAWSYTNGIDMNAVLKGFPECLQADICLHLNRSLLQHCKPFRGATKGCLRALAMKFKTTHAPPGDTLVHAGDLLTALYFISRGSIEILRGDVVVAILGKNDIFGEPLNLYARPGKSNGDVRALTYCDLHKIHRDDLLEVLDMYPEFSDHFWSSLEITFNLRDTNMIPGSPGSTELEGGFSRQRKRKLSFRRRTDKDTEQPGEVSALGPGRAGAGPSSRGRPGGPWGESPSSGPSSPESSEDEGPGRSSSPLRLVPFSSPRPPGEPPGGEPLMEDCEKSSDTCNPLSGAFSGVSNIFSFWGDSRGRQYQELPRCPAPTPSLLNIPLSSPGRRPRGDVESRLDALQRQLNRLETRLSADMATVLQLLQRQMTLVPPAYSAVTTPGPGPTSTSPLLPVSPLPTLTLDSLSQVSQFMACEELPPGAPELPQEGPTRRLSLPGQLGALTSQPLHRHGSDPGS

Turning to `COc1cccc(-c2n[nH]c(SCc3ccccn3)n2)c1OC` [S3643, 2-(((3-(2,3-dimethoxyphenyl)-1H-1,2,4-triazol-5-yl)thio)methyl)pyridine], in series [1] (setting [5]), the concentration at 0.25 h amounted to 86000 ng/mL, the concentration at 0.5 h was 81400 ng/mL, the concentration at 1 h amounted to 55900 ng/mL and the concentration at 2 h came out at 29200 ng/mL. In series [1] (setting [5]), this compound had a concentration at 4 h of 14100 ng/mL, a concentration at 8 h of 4830 ng/mL and a concentration at 24 h of 63 ng/mL. In series [1] (setting [6]), the “% Peak Area” value was determined as 55.52% and the “Peak Area (×10^6)” value is 69.9. Also, the inhibition at 10 µM at CYP2C9 was found to be 8%. In series [2] (63–250 μg/mL, 3 h exposure, +S9), the “Chromosome aberration (in vitro), result” value was “Negative”. For the same compound, the “Chromosome aberration (in vitro), result” value in series [2] (63–250 μg/mL, 20 h exposure, −S9) is “Negative”. For the same compound, the “Chromosome aberration (in vitro), result” value in series [2] (130–500 μg/mL, 3 h exposure, −S9) is listed as “Negative”. For the same compound, in series [2] (non-activated and S9-activated), the “Induction of structural and numerical chromosome aberrations, conclusion” value is on record as “negative”. Moreover, in series [3] (63–1000 μg/plate, preincubation, +S9), the “Reverse mutation (in vitro), result” value is “Negative”. For the same compound, in series [3] (130–2000 μg/plate, plate incorporation, ±S9), the “Reverse mutation (in vitro), result” value is on record as “Negative”. Further, the “Reverse mutation (in vitro), result” value in series [3] (130–2000 μg/plate, preincubation, −S9) is “Negative”. The “Mutagenicity, conclusion” value in series [3] (absence and presence of metabolic activation) is on record as “not mutagenic”. In addition, in series [4], the Findings result is recorded as “No test-article related findings”. Moreover, the inhibition at 10 µM on hERG is less than 10%.
